Experimental data taken from patent US4425355A, “Substituted acyl derivatives of chair form of octahydro-1H-indole-2-carboxylic acids” (Warner-Lambert Company, priority 1981, dated 1984).
Structures can show the parent of a compound that is named as a salt.

Target: T1, Angiotensin converting enzyme (ACE) (Cavia porcellus, UniProt H0UWL7)
T1 construct: ACE from guinea pig serum and the test compounds are preincubated for 10 minutes; from tissue; host or cells: guinea pig serum
T1 sequence (H0UWL7 33-1302): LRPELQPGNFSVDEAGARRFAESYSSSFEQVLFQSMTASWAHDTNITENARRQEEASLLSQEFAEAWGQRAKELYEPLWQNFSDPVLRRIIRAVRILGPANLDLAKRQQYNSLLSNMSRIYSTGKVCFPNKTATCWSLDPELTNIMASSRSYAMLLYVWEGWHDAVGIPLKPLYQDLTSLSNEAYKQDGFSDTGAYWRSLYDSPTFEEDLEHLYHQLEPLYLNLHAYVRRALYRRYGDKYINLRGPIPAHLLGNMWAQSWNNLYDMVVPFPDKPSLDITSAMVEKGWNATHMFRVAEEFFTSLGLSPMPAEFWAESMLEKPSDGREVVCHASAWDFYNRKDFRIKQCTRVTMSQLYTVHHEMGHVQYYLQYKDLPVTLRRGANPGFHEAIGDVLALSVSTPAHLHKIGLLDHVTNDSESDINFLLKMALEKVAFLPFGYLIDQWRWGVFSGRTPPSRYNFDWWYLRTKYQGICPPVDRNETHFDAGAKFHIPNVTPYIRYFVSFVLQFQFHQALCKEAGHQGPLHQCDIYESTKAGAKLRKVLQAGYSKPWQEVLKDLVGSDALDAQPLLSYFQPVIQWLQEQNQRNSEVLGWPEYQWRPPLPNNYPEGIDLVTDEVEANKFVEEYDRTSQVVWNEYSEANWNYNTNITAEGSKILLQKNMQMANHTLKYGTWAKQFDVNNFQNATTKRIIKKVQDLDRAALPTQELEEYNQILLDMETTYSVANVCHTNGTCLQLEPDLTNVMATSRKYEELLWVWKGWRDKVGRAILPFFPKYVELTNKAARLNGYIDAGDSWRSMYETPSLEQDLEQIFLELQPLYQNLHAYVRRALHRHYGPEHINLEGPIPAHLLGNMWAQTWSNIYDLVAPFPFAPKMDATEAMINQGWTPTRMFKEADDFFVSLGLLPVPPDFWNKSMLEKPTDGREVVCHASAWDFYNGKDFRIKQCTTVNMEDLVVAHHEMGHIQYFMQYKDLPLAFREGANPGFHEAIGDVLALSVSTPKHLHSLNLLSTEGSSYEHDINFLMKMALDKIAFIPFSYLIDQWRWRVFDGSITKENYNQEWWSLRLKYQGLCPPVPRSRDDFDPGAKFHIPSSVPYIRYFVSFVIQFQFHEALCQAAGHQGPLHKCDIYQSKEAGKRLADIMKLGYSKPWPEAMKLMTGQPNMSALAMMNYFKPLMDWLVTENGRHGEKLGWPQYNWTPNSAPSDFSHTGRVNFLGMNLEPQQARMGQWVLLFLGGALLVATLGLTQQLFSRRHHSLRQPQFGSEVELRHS
Assay: In vitro ACE Assay: angiotensin converting enzyme inhibitory activity (guinea pig serum ACE, 3H-hippuryl-glycyl-glycine substrate)
Format: biochemical
Conditions: 10 min preincubation, 60 minute incubation at 37° C., read-out: IC50 (Activity of Compounds of Formula V)
Method: In vitro ACE Assay: Angiotensin converting enzyme (ACE) inhibitory activity is determined by assaying guinea pig serum ACE in the presence and absence of the test compound. ACE from guinea pig serum and the test compounds are preincubated for 10 minutes before the addition of the labelled substrate ^3 H-hippuryl-glycyl-glycine. […] ACE cleaves the hippuryl-glycyl bond to form the dipeptide glycyl-glycine and ^3 H-hippuric acid. The ^3 H-hippuric acid is then extracted with ethyl acetate and the ACE inhibition of a given sample calculated on the basis of the ^3 H-hippuric acid generated.

Row | SMILES | IC50 [nM]
1 | CC(=O)SCC(C)C(=O)N1[C@H](C(=O)O)C[C@@H]2CCCC[C@@H]21 (single isomer, unassigned; diastereomer a) [V: R=H, R1=CH3, R2=CH3 CO, A, (2α,3aβ,7aβ)-Octahydro-1-[3-(acetylthio)-2-methyl-propanoyl]-1H-indole-2-carboxylic Acid, Diastereomer A] | 160
2 | CC(=O)SCC(C)C(=O)N1[C@H](C(=O)O)C[C@@H]2CCCC[C@@H]21 (single isomer, unassigned; diastereomer b) [V: R=H, R1=CH3, R2=CH3 CO, dl, B, (2α,3aβ,7aβ)-Octahydro-1-[3-(acetylthio)-2-methylpropanoyl]-1H-indole-2-carboxylic Acid, Diastereomer B.] | 1100
3 | CC(=O)SCCC(=O)N1[C@H](C(=O)O)C[C@@H]2CCCC[C@@H]21 (relative stereo) [V: R=H, R1=H, R2=CH3 CO, l, (1)-(2α,3aβ,7aβ)-Octahydro-1-[3-(acetylthio)-propanoyl]-1H-indole-2-carboxylic Acid] | 480
4 | CC(CSC(=O)C(C)(C)C)C(=O)N1[C@H](C(=O)O)C[C@@H]2CCCC[C@@H]21 (single isomer, unassigned) [V: R=H, R1=CH3, R2=(CH3)3 CCO, dl, A, (2α,3aβ,7aβ)-Octahydro-1-[3-(2,2-dimethylpropanoylthio)-2-methylpropanoyl]-1H-indole-2-carboxylic Acid] | 170
5 | CC(CSC(=O)c1ccccc1)C(=O)N1[C@H](C(=O)O)C[C@@H]2CCCC[C@@H]21 (single isomer, unassigned; diastereomer a) [V: R=H, R1=CH3, R2=PhCO, dl, A, (2α,3aβ,7aβ)-Octahydro-1-[3-(benzoylthio)-2-methylpropaoyl]-1H-indole-2-carboxylic Acid (Diastereomer A) t-Butylamine Salt] | 960
6 | CCC(=O)SCC(C)C(=O)N1[C@H](C(=O)O)C[C@@H]2CCCC[C@@H]21 (single isomer, unassigned; diastereomer a) [V: R=H, R1=CH3, R2=CH3 CH2 CO, dl, A, (2α,3aβ,7aβ)-Octahydro-1-[3-(propanoylthio)-2-methylpropanoyl]-1H-indole-2-carboxylic Acid, (Diastereomer A)] | 52
7 | CC(CS)C(=O)N1[C@H](C(=O)O)C[C@@H]2CCCC[C@@H]21 (single isomer, unassigned; diastereomer a) [V: R=H, R1=CH3, R2=H, dl, A, (2α,3aβ,7aβ)-Octahydro-1-(3-mercapto-2-methylpropanoyl)-1H-indole-2-carboxylic Acid, Diastereomer A] | 7
8 | CC(CS)C(=O)N1[C@H](C(=O)O)C[C@@H]2CCCC[C@@H]21 (relative stereo) [V: R=H, R1=CH3, R2=H, --, (2α,3aβ,7aβ)-Octahydro-1-(3-mercapto-2-methylpropanoyl)-1H-indole-2-carboxylic acid] | 16
9 | CCOC(=O)[C@@H]1C[C@@H]2CCCC[C@@H]2N1C(=O)C(C)CSC(C)=O (relative stereo) [V: R=C2 H5, R1=CH3, R2=CH3 CO, --, Ethyl (2α,3aβ,7aβ)-Octahydro-1-[3-(acetylthio)-2-methylpropanoyl]-1H-indole-2-carboxylate] | 6700
10 | O=C(O)[C@@H]1C[C@@H]2CCCC[C@@H]2N1C(=O)CCS (relative stereo) [V: R=H, R1=H, R2=H, l, (1)-(2α,3aβ,7aβ)-Octahydro-1-(3-mercaptopropanoyl)-1H-indole-2-carboxylic Acid] | 6.4
